# Assay results as given in ChEMBL document CHEMBL4000214, “Lycopene pretreatment improves hepatotoxicity induced by acetaminophen in C57BL/6 mice” (2017).
# Calls of active or inactive are those of the source. The calls are words filed in the database; no cut-off is given here.
# What was measured:
# [1] = test system: Mus musculus; assay: (§1) Hepatoprotective activity against APAP overdose-induced liver damage in C57BL/6 mouse assessed as serum IL-6 mRNA level at 100 mg/kg, po pretreated via gavage for 14 consecutive days followed by APAP treatment 1 hr post last dose on day 14 measured 12 hrs post APAP treatment by RT-PCR method (reference value: 0.32 +/- 0.2); format: functional
# [2] = test system: Mus musculus; assay: as §1, with “injury” for “damage”, “AST” for “IL-6 mRNA”, “spectrophotometric” for “RT-PCR”, “143.8” for “0.32”, “2.5 IU)” for “0.2)”; format: functional
# [3] = test system: Mus musculus; assay: as §1, with “IL-10” for “IL-6”, “0.45” for “0.32”; format: functional
# [4] = test system: Mus musculus; assay: Hepatoprotective activity against APAP overdose-induced liver damage in C57BL/6 mouse assessed as decrease in APAP-induced MMP2 activity in liver at 10 to 100 mg/kg, po pretreated via gavage for 14 consecutive days followed by APAP treatment 1 hr post last dose on day 14 measured 12 hrs post APAP treatment by coomassie brilliant blue staining based gelatin zymography assay; format: functional, organism-based
# [5] = test system: Mus musculus; assay: (§2) Hepatoprotective activity against APAP overdose-induced liver injury in C57BL/6 mouse assessed as atherogenic fraction in serum at 100 mg/kg, po pretreated via gavage for 14 consecutive days followed by APAP treatment 1 hr post last dose on day 14 measured 12 hrs post APAP treatment by spectrophotometric method (reference value: 28.8 +/- 2.6 mg/dl); format: functional
# [6] = test system: Mus musculus; assay: (§3) Hepatoprotective activity against APAP overdose-induced oxidative damage in C57BL/6 mouse assessed as inhibition of APAP-induced decrease in total GSH level in liver at 10 to 100 mg/kg, po pretreated via gavage for 14 consecutive days followed by APAP treatment 1 hr post last dose on day 14 measured 12 hrs post APAP treatment by DTNB reagent based assay; format: functional, organism-based
# [7] = test system: Mus musculus; assay: as §3, with “increase” for “inhibition of APAP-induced decrease”, “in” for “in total”; format: functional, organism-based
# [8] = test system: Mus musculus; assay: as §1, with “10” for “100”; format: functional
# [9] = test system: Mus musculus; assay: (§4) Hepatoprotective activity against APAP overdose-induced oxidative damage in C57BL/6 mouse assessed as restoration of APAP-induced loss in SOD activity in liver by measuring SOD ability to dismutase superoxide anion at 10 to 100 mg/kg, po pretreated via gavage for 14 consecutive days followed by APAP treatment 1 hr post last dose on day 14 measured 12 hrs post APAP treatment by spectrophotometric method; format: functional, organism-based
# [10] = test system: Mus musculus; assay: as §3, with “as” for “as inhibition of APAP-induced”, “lipid peroxidation” for “total GSH level”, “TBARS” for “DTNB reagent based”; format: functional, organism-based
# [11] = test system: Mus musculus; assay: as §2, with “as” for “as atherogenic fraction in”, “serum ALT level” for “serum”, “10” for “100”, “166” for “28.8”, “1.7 IU)” for “2.6 mg/dl)”; format: functional
# [12] = test system: Mus musculus; assay: as §2, with “HDL level” for “atherogenic fraction”, “10” for “100”, “10.8” for “28.8”, “0.6” for “2.6”; format: functional
# [13] = test system: Mus musculus; assay: as §2, with “as” for “as atherogenic fraction in”, “serum ALT level” for “serum”, “166” for “28.8”, “1.7 IU)” for “2.6 mg/dl)”; format: functional
# [14] = test system: Mus musculus; assay: as §1, with “IL-10” for “IL-6”, “10” for “100”, “0.45” for “0.32”; format: functional
# [15] = test system: Mus musculus; assay: Hepatoprotective activity against APAP overdose-induced oxidative damage in C57BL/6 mouse assessed as decrease in GSSG level in liver at 10 mg/kg, po pretreated via gavage for 14 consecutive days followed by APAP treatment 1 hr post last dose on day 14 measured 12 hrs post APAP treatment; format: functional, organism-based
# [16] = test system: Mus musculus; assay: as §2, with “total cholesterol level” for “atherogenic fraction”, “42.2” for “28.8”, “3.5” for “2.6”; format: functional
# [17] = test system: Mus musculus; assay: as §2, with “HDL level” for “atherogenic fraction”, “10.8” for “28.8”, “0.6” for “2.6”; format: functional
# [18] = test system: Mus musculus; assay: as §1, with “IL-1beta” for “IL-6”, “1.67” for “0.32”, “0.4)” for “0.2)”; format: functional
# [19] = test system: Mus musculus; assay: (§5) Hepatoprotective activity against APAP overdose-induced liver damage in C57BL/6 mouse assessed as decrease in liver necrotic area at 10 mg/kg, po pretreated via gavage for 14 consecutive days followed by APAP treatment 1 hr post last dose on day 14 measured 12 hrs post APAP treatment by hematoxylin and eosin staining based assay; format: functional, organism-based
# [20] = test system: Mus musculus; assay: Hepatoprotective activity against APAP overdose-induced oxidative damage in C57BL/6 mouse assessed as decrease in GSSG level in liver at 100 mg/kg, po pretreated via gavage for 14 consecutive days followed by APAP treatment 1 hr post last dose on day 14 measured 12 hrs post APAP treatment; format: functional, organism-based
# [21] = test system: Mus musculus; assay: as §2, with “10” for “100”; format: functional
# [22] = test system: Mus musculus; assay: as §4, with “catalase” for “SOD”, “decrease in hydrogen peroxide level” for “SOD ability to dismutase superoxide anion”; format: functional, organism-based
# [23] = test system: Mus musculus; assay: Hepatoprotective activity against APAP overdose-induced oxidative damage in po dosed C57BL/6 mouse assessed as decrease in carbonylated protein content in liver pretreated via gavage for 14 consecutive days followed by APAP treatment 1 hr post last dose on day 14 measured 12 hrs post APAP treatment by spectrophotometric method; format: functional, organism-based
# [24] = test system: Mus musculus; assay: as §1, with “IL-1beta” for “IL-6”, “10” for “100”, “1.67” for “0.32”, “0.4)” for “0.2)”; format: functional
# [25] = test system: Mus musculus; assay: as §2, with “total cholesterol level” for “atherogenic fraction”, “10” for “100”, “42.2” for “28.8”, “3.5” for “2.6”; format: functional
# [26] = test system: Mus musculus; assay: as §2, with “as” for “as atherogenic fraction in”, “serum AST level” for “serum”, “10” for “100”, “143.8” for “28.8”, “2.5 IU)” for “2.6 mg/dl)”; format: functional
# [27] = test system: Mus musculus; assay: as §5, with “100” for “10”; format: functional, organism-based
structure (smiles),measurement,setting,value
CC(C)=CCC/C(C)=C/C=C/C(C)=C/C=C/C(C)=C/C=C/C=C(C)/C=C/C=C(C)/C=C/C=C(\C)CCC=C(C)C [LYCOPENE],Activity,[1],0.4
same,Activity,[2],139.8 IU
same,Activity,[3],0.3
same,Activity,[4],Active
same,Activity,[5],41.1 mg/dL
same,Activity,[6],Active
same,Activity,[7],Active
same,Activity,[8],0.37
same,Activity,[9],inactive
same,Activity,[10],Active
same,Activity,[11],161.7 IU
same,Activity,[12],9 mg/dL
same,Activity,[13],164.1 IU
same,Activity,[14],0.57
same,Activity,[15],inactive
same,Activity,[16],58.2 mg/dL
same,Activity,[17],17 mg/dL
same,Activity,[18],0.58
same,Activity,[19],inactive
same,Activity,[20],Active
same,Activity,[21],30 mg/dL
same,Activity,[22],Active
same,Activity,[23],Dose-dependent effect
same,Activity,[24],0.68
same,Activity,[25],41 mg/dL
same,Activity,[26],139.6 IU
same,Activity,[27],Active
